In PubChem BioAssay (NCI) one finds TGI data, which are given here for 14 compounds.

Holding throughout (test): inhibition of tumour cell growth, NCI panel, 48 h
For experiment [1], the system named is MDA-MB-435.
In experiment [2] the test system is SK-OV-3 ovarian.
The subject of experiment [3] is RPMI-8226 leukemia.
The subject of experiment [4] is SK-MEL-2 melanoma.
Experiment [5] relates to OVCAR-8 ovarian.
In experiment [6] the test system is A549 NSCLC.
For experiment [7], the system named is SR leukemia.
In experiment [8] the test system is COLO 205 colon.
In experiment [9] the test system is HT29 colon.
Experiment [10] relates to MCF7 breast.
Experiment [11] has as its system OVCAR-4 ovarian.

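In this assay, cells in 96-well plates receive the compound at five concentrations for 48 hours. Endpoints are linearly interpolated between the surrounding concentrations. TGI: total growth inhibition.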

Regarding `O=C(NC12CC3CC(CC(C3)C1)C2)n1cnc2cncnc21`, the TGI was more than 100 µM in experiment [1]; 47.1 µM in experiment [2]; 79.4 µM in [3]; 58.4 µM in experiment [4]; more than 100 µM in experiment [5]; more than 100 µM in experiment [6]. Also, the TGI in experiment [7] is 62.4 µM; in experiment [8], 37.4 µM; in experiment [9], more than 100 µM; in [10], more than 100 µM.

Take `CS(=O)(=O)c1nc(-c2cc3c(c(S(C)(=O)=O)n2)CCC3)cc2c1CCC2`: the TGI in [1], in experiment [2], in [3], in [11], in [4] and in [5] was more than 100 µM throughout. Further, the TGI in [6], in experiment [8] and in experiment [9] was more than 100 µM each time.

`COC12OC3(C4OC41)C(C(=O)O[C@H]3CO[Si](C)(C)C(C)(C)C)C2S(=O)(=O)c1ccccc1` (stereo partly specified): the TGI in experiment [1] is more than 5.11 µM; in experiment [2], more than 30.4 µM; in experiment [3], 11.7 µM; in [4] it was more than 5.33 µM; in experiment [5], more than 100 µM; in [6], more than 100 µM. The TGI in [7] is more than 100 µM; in experiment [8] it was 47.3 µM; in [10], more than 100 µM.

As for `O=C(OCc1ccccc1[N+](=O)[O-])N1c2ccccc2[C@@]23O[C@]24CCC[C@H]3C#C/C=C\C#C[C@H]14`, the TGI in experiment [1], in experiment [2], in [11], in [4], in experiment [5] and in [6] was more than 100 µM throughout. For the same compound, the TGI in [8], in [9] and in [10] was more than 100 µM each time.

Turning to `N#CCCN(CCN(CCN(C(=O)Nc1ccccc1)c1ccccc1)C(=O)Nc1ccccc1)C(=O)Nc1ccccc1`, the TGI in experiment [1], in [2], in experiment [3], in experiment [11], in experiment [4] and in experiment [5] was more than 100 µM throughout. The TGI in [6], in experiment [8] and in [10] was more than 100 µM each time.

Consider `CC12CCC3=C(CSC4=C3CSc3ccccc34)C1=CCCC2=O` (stereo unspecified), for which the TGI was more than 100 µM in experiment [3]; 55.6 µM in [11]; more than 100 µM in experiment [4]; more than 100 µM in [5]; more than 100 µM in experiment [6]; more than 100 µM in experiment [7]. For the same compound, the TGI in [8] is 45.8 µM; in [9], more than 100 µM.

As to `O=C(O)CC(Cc1ccccc1)C(=O)O` (stereo unspecified), the TGI in experiment [1], in [2], in experiment [3], in experiment [11], in experiment [4] and in experiment [5] was more than 100 µM in each case. In addition, the TGI in experiment [6], in [8], in experiment [9] and in [10] was more than 100 µM throughout.

On to `CCNc1nc2ccccc2nc1NCC`, for which the TGI in experiment [1], in experiment [2], in experiment [3], in [4], in experiment [5] and in experiment [6] was more than 100 µM each time. Moreover, the TGI in [7], in experiment [8], in [9] and in experiment [10] was more than 100 µM in each case.

As to `C=CCCCN1C(=O)C2C3c4ccccc4C(C=O)(c4ccccc43)C2C1=O` (stereo unspecified), the TGI in experiment [2] is 60.3 µM; in experiment [3], 28.5 µM; in experiment [11], 29.1 µM; in experiment [4], 59.5 µM; in experiment [5] it was 26.5 µM; in [6], 35.9 µM. Besides, the TGI in [7] was determined as 18.1 µM; in [8], 25.2 µM; in experiment [9] it was 27.5 µM; in experiment [10], 28.5 µM.

For the compound `CCCCc1ccc(Nc2nc(N)c3[nH]cnc3n2)cc1`, the TGI in [1] is 40.6 µM; in [2], 52.7 µM; in experiment [3], 77.5 µM; in experiment [11] it was 60.4 µM; in experiment [4], 57.6 µM; in [5] it was 31.8 µM. In addition, the TGI was 79.4 µM in [6], 38.1 µM in experiment [8], 28.3 µM in experiment [9] and 42.4 µM in [10].

For `c1ccc(C[P+]2(c3ccccc3)CCCCC2)cc1`, the TGI in experiment [2], in [3], in [11], in [4], in [5] and in [6] was more than 100 µM in each case. The TGI in [7], in experiment [8] and in experiment [9] was more than 100 µM in each case.

Turning to `C(=C/c1ccc2nc(-c3ccc(/C=C/C=N/NC4=NCCCN4)cc3)cn2c1)/C=N/NC1=NCCCN1`, the TGI was more than 100 µM in experiment [1]; more than 100 µM in experiment [2]; more than 100 µM in [3]; more than 100 µM in experiment [11]; more than 100 µM in experiment [4]; 39 µM in [5]. The TGI is 22 µM in experiment [6], more than 100 µM in experiment [7] and more than 100 µM in experiment [8].

In the case of `O=C1N2CCN=C2c2ccccc2C1(O)c1ccccc1` (stereo unspecified), the TGI in experiment [1], in experiment [3], in experiment [11], in [5], in experiment [6] and in experiment [7] was more than 100 µM throughout. Also, the TGI in experiment [8], in [9] and in experiment [10] was more than 100 µM in each case.

In the case of `CC(=O)Nc1ccc(S(=O)(=O)/N=c2/sc(S(N)(=O)=O)nn2C)cc1`, the TGI in [1], in [2], in [3], in experiment [11], in [4] and in experiment [5] was more than 100 µM throughout. The TGI in [6], in [7], in experiment [8] and in experiment [9] was more than 100 µM throughout.
